The test system of assay [1] is IL6 secretion by OCI-LY3 ABC-DLBCL cells. The assay can be described thus: Human IL6 Mesoscale assay (OCI-LY3). The following applies: Homo sapiens, 24 h. Format: cell-based. A digest of the protocol: (§1)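 Read-out: MSD electrochemiluminescence of IL6/IL10 in supernatants. Cells (100,000/well, no beta-mercaptoethanol) were exposed to compounds at 15 μM down to 58.6 nM, 1:2 dilutions, for 24 h at 37° C, 5% CO2. Normalised between DMSO (high) and RN486 (low) controls.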

A further assay has as its system TMD8 cells. The assay can be described thus: 4-day proliferation assay, TMD8. Format: cell-based. The conditions noted are these: Homo sapiens, 96 h, 4 days incubation, CellTiterGLO, read-out: Anti-proliferation: TMD-8 IC50. In a few lines:
(§2)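 Each line was plated at 10,000 cells per well for linear growth, with no beta-mercaptoethanol during the assay. OCI-Ly3 cells were below passage 10.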
Background: ATP-based viability assays read luminescence as a measure of living cells.

Assay [2] has as its target full-length MALT1 protein (Strep-MALT1(1-824)-His) (Homo sapiens (Human), UniProt Q9UDY8). The assay can be described thus: MALT1 Biochemical Protease Assay (Ac-LRSR-AMC substrate). The conditions noted are these: 10 nM FL MALT1, 200 μM Ac-LRSR-AMC, 4 h at RT; read-out: MALT1_Biochemical activity (Ac-LRSR-amc) IC50. In a few lines: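 Fluorescence from AMC release off the quenched LRSR substrate was read after a 4 h reaction at RT. Values were normalised to no-enzyme and uninhibited controls and fitted for IC50 and Hill coefficient.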

The next assay deals with OCI-Ly3 cells. The assay can be described thus: 4-day proliferation assay, OCI-Ly3. The conditions noted are these: Homo sapiens, 96 h, 4 days incubation, CellTiterGLO, read-out: Anti-proliferation: OCI-LY-3 IC50. Format: cell-based, human. A digest of the protocol:
as §2

The subject of assay [3] is IL10 secretion by OCI-LY3 ABC-DLBCL cells. The assay can be described thus: Human IL10 Mesoscale assay (OCI-LY3). It counts as cell-based. The following applies: Homo sapiens, 24 h. A digest of the protocol:
as §1

This note sets out measurements from patent US10954214B2 (Janssen Pharmaceutica NV, priority 2016, dated 2021).

Structures are written as SMILES.

Chain of full-length MALT1 protein (Strep-MALT1(1-824)-His) (Q9UDY8 whole entry): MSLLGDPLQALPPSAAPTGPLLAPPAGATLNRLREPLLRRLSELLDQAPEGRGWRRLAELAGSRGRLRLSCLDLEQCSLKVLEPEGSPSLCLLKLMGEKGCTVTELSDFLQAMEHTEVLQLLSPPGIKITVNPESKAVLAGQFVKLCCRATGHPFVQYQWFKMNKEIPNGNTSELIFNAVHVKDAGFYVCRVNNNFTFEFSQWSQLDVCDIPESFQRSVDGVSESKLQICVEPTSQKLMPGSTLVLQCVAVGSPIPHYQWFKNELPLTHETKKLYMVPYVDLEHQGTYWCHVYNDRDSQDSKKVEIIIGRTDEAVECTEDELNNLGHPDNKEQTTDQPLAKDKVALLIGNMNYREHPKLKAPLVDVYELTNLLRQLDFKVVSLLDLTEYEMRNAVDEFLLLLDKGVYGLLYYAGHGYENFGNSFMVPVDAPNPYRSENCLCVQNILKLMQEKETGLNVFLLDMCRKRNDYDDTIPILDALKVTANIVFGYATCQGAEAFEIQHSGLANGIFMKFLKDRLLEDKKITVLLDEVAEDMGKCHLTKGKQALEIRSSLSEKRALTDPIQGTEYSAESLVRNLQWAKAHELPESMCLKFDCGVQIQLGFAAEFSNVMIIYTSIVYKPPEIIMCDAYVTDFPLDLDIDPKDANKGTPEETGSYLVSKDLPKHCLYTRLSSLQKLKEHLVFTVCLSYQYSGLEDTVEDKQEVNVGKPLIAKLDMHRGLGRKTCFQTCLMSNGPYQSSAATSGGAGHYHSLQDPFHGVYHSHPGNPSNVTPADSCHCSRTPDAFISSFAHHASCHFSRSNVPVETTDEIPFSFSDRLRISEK

For the molecule `O=C(Nc1cnc(-n2nccn2)c(Br)c1)c1cnn(-c2cccc3ncccc23)c1C(F)(F)F` [Cpd 139, N-(5-bromo-6-(2H-1,2,3-triazol-2-yl)pyridin-3-yl)-1-(quinolin-5-yl)-5-(trifluoromethyl)-1H-pyrazole-4-carboxamide], the IC50 in assay [1] came out at 50 nM; in the assay with TMD8 cells it was 1410 nM; in assay [2], 23 nM; in the assay with OCI-Ly3 cells, 275 nM; in assay [3] it was 36 nM.
The corresponding values for `Nc1cnn(-c2ncc(NC(=O)c3cnn(-c4cccc5ncccc45)c3C(F)(F)F)cc2Cl)n1` [Cpd 154, N-(6-(4-amino-2H-1,2,3-triazol-2-yl)-5-chloropyridin-3-yl)-1-(quinolin-5-yl)-5-(trifluoromethyl)-1H-pyrazole-4-carboxamide] are 98 nM, 2240 nM, 19 nM, 395 nM and 95 nM.
With `Nc1ncc(-n2ncc(C(=O)Nc3cnc(-n4nccn4)c(Cl)c3)c2C(F)(F)F)c2ccccc12` [Cpd 155, 1-(1-aminoisoquinolin-4-yl)-N-(5-chloro-6-(2H-1,2,3-triazol-2-yl)pyridin-3-yl)-5-(trifluoromethyl)-1H-pyrazole-4-carboxamide], the IC50 in assay [1] turned out to be 93 nM; with TMD8 cells, 1380 nM; in assay [2], 19 nM; with OCI-Ly3 cells it was 302 nM; in assay [3], 68 nM.
Consider `Cn1ccc(-c2ncc(NC(=O)c3cnn(-c4cccc5c(=O)[nH]ccc45)c3C(F)(F)F)cc2Cl)n1` [Cpd 157, N-(5-chloro-6-(1-methyl-1H-pyrazol-3-yl)pyridin-3-yl)-1-(1-oxo-1,2-dihydroisoquinolin-5-yl)-5-(trifluoromethyl)-1H-pyrazole-4-carboxamide], for which the IC50 turned out to be 1780 nM in assay [1]; 7080 nM in the assay on TMD8 cells; 23 nM in assay [2]; 1270 nM with OCI-Ly3 cells; 912 nM in assay [3].
As for `O=C(Nc1cncc(C(F)(F)F)c1)c1cnn(-c2cccc3c(=O)[nH]ccc23)c1C(F)(F)F` [Cpd 167, 1-(1-oxo-1,2-dihydroisoquinolin-5-yl)-5-(trifluoromethyl)-N-(5-(trifluoromethyl)pyridin-3-yl)-1H-pyrazole-4-carboxamide], the IC50 in assay [1] was determined as 191 nM; in the assay with TMD8 cells, 4570 nM; in assay [2], 110 nM; in the assay on OCI-Ly3 cells, 1020 nM; in assay [3], 174 nM.
For the molecule `Cc1nc(-c2ccn(C)n2)c(Cl)cc1NC(=O)c1cnn(-c2cccc3c(=O)[nH]ccc23)c1C(F)(F)F` [Cpd 169, N-(5-chloro-2-methyl-6-(1-methyl-1H-pyrazol-3-yl)pyridin-3-yl)-1-(1-oxo-1,2-dihydroisoquinolin-5-yl)-5-(trifluoromethyl)-1H-pyrazole-4-carboxamide], the IC50 was 166 nM in assay [1]; 8910 nM in the assay with TMD8 cells; 72 nM in assay [2]; 1750 nM in the assay with OCI-Ly3 cells; 182 nM in assay [3].
The corresponding values for `O=C(Nc1cc(Cl)c(-n2nccn2)cc1F)c1cnn(-c2cccc3c(=O)[nH]ccc23)c1C(F)(F)F` [Cpd 172, N-(5-chloro-2-fluoro-4-(2H-1,2,3-triazol-2-yl)phenyl)-1-(1-oxo-1,2-dihydroisoquinolin-5-yl)-5-(trifluoromethyl)-1H-pyrazole-4-carboxamide] are 204 nM, 4790 nM, 69 nM, 504 nM and 158 nM.
`Cc1nc(-n2nccn2)c(C#N)cc1NC(=O)c1cnn(-c2cccc3c(=O)[nH]ccc23)c1C(F)(F)F` [Cpd 176, N-(5-cyano-2-methyl-6-(2H-1,2,3-triazol-2-yl)pyridin-3-yl)-1-(1-oxo-1,2-dihydroisoquinolin-5-yl)-5-(trifluoromethyl)-1H-pyrazole-4-carboxamide]: the IC50 in assay [1] is 117 nM; with TMD8 cells, over 20000 nM; in assay [2], 45 nM; in the assay on OCI-Ly3 cells it was 1590 nM; in assay [3], 95 nM.
On to `Nc1cnnn1-c1ncc(NC(=O)c2cnn(-c3cccc4c(=O)[nH]ccc34)c2C(F)(F)F)cc1Cl` [Cpd 178, N-(6-(5-amino-1H-1,2,3-triazol-1-yl)-5-chloropyridin-3-yl)-1-(1-oxo-1,2-dihydroisoquinolin-5-yl)-5-(trifluoromethyl)-1H-pyrazole-4-carboxamide], for which the IC50 in assay [1] was 589 nM; in the assay with TMD8 cells, over 20000 nM; in assay [2], 42 nM; with OCI-Ly3 cells, 2800 nM; in assay [3], 427 nM.
The corresponding values for `N#Cc1cnn(-c2ncc(NC(=O)c3cnn(-c4cccc5ncccc45)c3C(F)(F)F)cc2Cl)n1` [Cpd 179, N-(5-chloro-6-(4-cyano-2H-1,2,3-triazol-2-yl)pyridin-3-yl)-1-(quinolin-5-yl)-5-(trifluoromethyl)-1H-pyrazole-4-carboxamide] are 288 nM, 1950 nM, 42 nM, 763 nM and 174 nM.
The corresponding values for `Cn1nc(-c2ncc(NC(=O)c3cnn(-c4cccc5ncccc45)c3C(F)(F)F)cc2C#N)cc1N` [Cpd 181, N-(6-(5-amino-1-methyl-1H-pyrazol-3-yl)-5-cyanopyridin-3-yl)-1-(quinolin-5-yl)-5-(trifluoromethyl)-1H-pyrazole-4-carboxamide] are 141 nM, over 7940 nM, 38 nM, 1500 nM and 110 nM.
`Cc1nc(-n2nccn2)c(Cl)cc1NC(=O)c1cnn(-c2cncc3ccccc23)c1C(F)(F)F` [Cpd 191, N-(5-chloro-2-methyl-6-(2H-1,2,3-triazol-2-yl)pyridin-3-yl)-1-(isoquinolin-4-yl)-5-(trifluoromethyl)-1H-pyrazole-4-carboxamide]: the IC50 in assay [1] is 22 nM; in the assay on TMD8 cells, 912 nM; in assay [2] it was 36 nM; in the assay with OCI-Ly3 cells, 866 nM; in assay [3] it was 13 nM.
The corresponding values for `O=C(Nc1cnc(-c2nnco2)c(Cl)c1)c1cnn(-c2cccc3ncccc23)c1C(F)(F)F` [Cpd 192, N-(5-chloro-6-(1,3,4-oxadiazol-2-yl)pyridin-3-yl)-1-(quinolin-5-yl)-5-(trifluoromethyl)-1H-pyrazole-4-carboxamide] are 46 nM, 4570 nM, 25 nM, 593 nM and 42 nM.
With `O=C(Nc1cnc(-n2nccn2)c(Cl)c1)c1cnn(-c2cccc3nccn23)c1C(F)(F)F` [Cpd 193, N-(5-chloro-6-(2H-1,2,3-triazol-2-yl)pyridin-3-yl)-1-(imidazo[1,2-a]pyridin-5-yl)-5-(trifluoromethyl)-1H-pyrazole-4-carboxamide], the IC50 in assay [1] was found to be 117 nM; in the assay with TMD8 cells, 3630 nM; in assay [2] it was 41 nM; in the assay on OCI-Ly3 cells, 521 nM; in assay [3], 79 nM.
Consider `O=C(Nc1cnc(-n2nccn2)c(Cl)c1)c1cnn(-c2cccn3nccc23)c1C(F)(F)F` [Cpd 197, N-(5-chloro-6-(2H-1,2,3-triazol-2-yl)pyridin-3-yl)-1-(pyrazolo[1,5-a]pyridin-4-yl)-5-(trifluoromethyl)-1H-pyrazole-4-carboxamide], for which the IC50 was determined as 123 nM in assay [1]; 7410 nM with TMD8 cells; 15 nM in assay [2]; 295 nM in the assay with OCI-Ly3 cells; 85 nM in assay [3].
The corresponding values for `N#Cc1cc(NC(=O)c2cnn(-c3cccc4nccn34)c2C(F)(F)F)cnc1-n1nccn1` [Cpd 200, N-(5-cyano-6-(2H-1,2,3-triazol-2-yl)pyridin-3-yl)-1-(imidazo[1,2-a]pyridin-5-yl)-5-(trifluoromethyl)-1H-pyrazole-4-carboxamide] are 380 nM, 7410 nM, 40 nM, 1390 nM and 282 nM.
With `O=C(Nc1cnc(-n2nccn2)c(Cl)c1)c1cnn(-c2cccc3ncc(Cl)n23)c1C(F)(F)F` [Cpd 201, N-(5-chloro-6-(2H-1,2,3-triazol-2-yl)pyridin-3-yl)-1-(3-chloroimidazo[1,2-a]pyridin-5-yl)-5-(trifluoromethyl)-1H-pyrazole-4-carboxamide], the IC50 in assay [1] was 117 nM; in the assay on TMD8 cells, 3630 nM; in assay [2] it was 28 nM; in the assay on OCI-Ly3 cells, 782 nM; in assay [3], 120 nM.
Consider `O=C(Nc1cc(Cl)c(-n2nccn2)cc1F)c1cnn(-c2cncc3c(F)cccc23)c1C(F)(F)F` [Cpd 302, N-(5-chloro-2-fluoro-4-(2H-1,2,3-triazol-2-yl)phenyl)-1-(8-fluoroisoquinolin-4-yl)-5-(trifluoromethyl)-1H-pyrazole-4-carboxamide], for which the IC50 was found to be 102 nM in assay [1]; 955 nM in the assay on TMD8 cells; 54 nM in assay [2]; 692 nM in the assay on OCI-Ly3 cells; 59 nM in assay [3].
